Consider five molecules from ChEMBL document CHEMBL1125648, “Quinazoline antifolates inhibiting thymidylate synthase: 4-thio-substituted analogues” (J Med Chem, 1991).

The assay concerns L1210. Put plainly: Growth inhibition of L1210 cells in culture. The format is functional, cell-based. To be noted: Mus musculus.
As usually defined, the IC50 is the point on the concentration scale where inhibition reaches its midpoint. A higher IC50 goes with lower potency. Molecule `C#CCN(Cc1ccc2nc(C)nc(S)c2c1)c1ccc(C(=O)NC(CCC(=O)O)C(=O)O)cc1` (stereo not given) displayed a half-inhibitory concentration (IC50) of 8 µM.

For `CCN(Cc1ccc2ncnc(SC)c2c1)c1ccc(C(=O)NC(CCC(=O)O)C(=O)O)cc1` (stereo not given), half-maximal inhibition (IC50) required 15 µM.

With `C#CCN(Cc1ccc2ncnc(S)c2c1)c1ccc(C(=O)NC(CCC(=O)O)C(=O)O)cc1` (stereo not given), the IC50 was 7.4 µM.

Molecule `C#CCN(Cc1ccc2nc(N)nc(S)c2c1)c1ccc(C(=O)NC(CCC(=O)O)C(=O)O)cc1` (stereo not given) had a concentration for half-maximal inhibition (IC50) of 18 µM.

With `CCN(Cc1ccc2ncnc(S)c2c1)c1ccc(C(=O)NC(CCC(=O)O)C(=O)O)cc1` (stereo not given), the IC50 came to 31 µM.
